ChEMBL document CHEMBL1139149, “Discovery of tertiary aminoacids as dual PPARalpha/gamma agonists-I” (Bioorg Med Chem Lett, 2007)
The source made the active and inactive calls. The calls are words filed in the database; no cut-off is given here.

How the values were obtained:
[1] = target: T1, Peroxisome proliferator-activated receptor gamma (Homo sapiens, UniProt P37231)
T1 sequence (P37231 whole entry): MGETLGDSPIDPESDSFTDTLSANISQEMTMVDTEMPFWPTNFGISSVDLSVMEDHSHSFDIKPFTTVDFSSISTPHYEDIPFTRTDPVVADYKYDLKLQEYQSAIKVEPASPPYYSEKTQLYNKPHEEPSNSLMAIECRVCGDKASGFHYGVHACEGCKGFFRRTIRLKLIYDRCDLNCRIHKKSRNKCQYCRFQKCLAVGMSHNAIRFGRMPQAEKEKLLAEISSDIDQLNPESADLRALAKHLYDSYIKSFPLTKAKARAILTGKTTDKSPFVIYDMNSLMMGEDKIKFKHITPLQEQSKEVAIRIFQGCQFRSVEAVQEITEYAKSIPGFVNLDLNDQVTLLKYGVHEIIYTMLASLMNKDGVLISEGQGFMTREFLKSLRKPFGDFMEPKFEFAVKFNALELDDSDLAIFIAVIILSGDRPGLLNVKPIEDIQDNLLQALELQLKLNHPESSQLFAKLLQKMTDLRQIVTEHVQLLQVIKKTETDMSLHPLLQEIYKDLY
Description: Agonist activity at PPARgamma receptor expressed in HEK293 cells by GAL4 transactivation assay

[2] = Permeability from apical to basolateral side of Caco-2 cell membrane at pH 7.4; format: ADME, cell-based; conditions: human, Caco-2, pH 7.4; read-out: permeability
[3] = target: T2, Peroxisome proliferator-activated receptor alpha (Homo sapiens, UniProt Q07869); assay: Displacement of fluorescein labeled ligand from PPARalpha receptor by fluorescence polarization assay
T2 sequence (Q07869 whole entry): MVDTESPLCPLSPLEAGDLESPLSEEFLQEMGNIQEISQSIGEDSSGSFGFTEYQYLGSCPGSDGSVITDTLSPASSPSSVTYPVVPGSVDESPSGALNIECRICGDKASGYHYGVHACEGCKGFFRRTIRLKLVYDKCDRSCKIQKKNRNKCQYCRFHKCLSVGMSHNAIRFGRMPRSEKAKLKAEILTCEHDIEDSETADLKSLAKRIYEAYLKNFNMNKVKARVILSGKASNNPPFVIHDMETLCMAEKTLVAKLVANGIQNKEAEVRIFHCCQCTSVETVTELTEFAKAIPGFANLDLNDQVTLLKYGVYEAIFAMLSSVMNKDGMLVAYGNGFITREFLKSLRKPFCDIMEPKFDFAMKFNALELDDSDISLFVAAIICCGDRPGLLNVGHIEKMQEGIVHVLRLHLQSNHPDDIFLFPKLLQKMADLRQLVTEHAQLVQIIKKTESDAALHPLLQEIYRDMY

[4] = target: T1, Peroxisome proliferator-activated receptor gamma; assay: (§1) Displacement of fluorescein labeled ligand from PPARgamma receptor by fluorescence polarization assay
[5] = Permeability from apical to basolateral side of Caco-2 cell membrane at pH 5.5; format: ADME, cell-based; conditions: human, Caco-2, pH 5.5; read-out: permeability
[6] = Metabolic stability in mouse liver microsomes after 10 mins; format: ADME, Microsome; conditions: read-out: Stability
[7] = target: T3, Peroxisome proliferator-activated receptor alpha (Homo sapiens) (UniProt Q07869); assay: Intrinsic activity at PPARalpha receptor expressed in HEK293 cells at 1 uM by GAL4 transactivation assay relative to GW-2331; format: cell-based
T3 sequence (whole entry): T2 sequence (Q07869 whole entry)

Mus musculus [8] = assay: Antidiabetic activity in db/db mouse assessed as changes in insulin level at 10 mg/kg, po qd for 14 days; format: functional
[9] = target: T2, Peroxisome proliferator-activated receptor alpha; assay: Agonist activity at PPARalpha receptor expressed in HEK293 cells by GAL4 transactivation assay; format: functional, cell-based
Mus musculus [10] = assay: Antidiabetic activity in db/db mouse assessed as changes in triglyceride level at 10 mg/kg, po qd for 14 days; format: functional
Mus musculus [11] = assay: Antidiabetic activity in db/db mouse assessed as changes in glucose level at 10 mg/kg, po qd for 14 days; format: functional
Mus musculus [12] = assay: Antidiabetic activity in db/db mouse assessed as changes in free fatty acid level at 10 mg/kg, po qd for 14 days; format: functional
[13] = Permeability from apical to basolateral side of Caco-2 cell membrane at pH 6.5; format: ADME, cell-based; conditions: human, Caco-2, pH 6.5; read-out: permeability
[14] = target: T4, Peroxisome proliferator-activated receptor gamma (Homo sapiens) (UniProt P37231); assay: as §1
T4 sequence (whole entry): T1 sequence (P37231 whole entry)

Row | SMILES | EC50 [1] | Papp A→B [2] | IC50 [3] | IC50 [4] | Papp A→B [5] | remaining at 10 min [6] | Intrinsic activity [7] | Activity (Mus musculus [8]) | EC50 [9] | Activity (Mus musculus [10]) | Activity (Mus musculus [11]) | Activity (Mus musculus [12]) | Papp A→B [13] | Activity [14]
1 | Cc1oc(-c2ccccc2)nc1CCOc1cccc(CN(CC(=O)O)Cc2ccccc2)c1 | 0.295 µM | 22.5 ×10⁻⁶ cm/s | 0.09 µM | 0.24 µM | 25.1 ×10⁻⁶ cm/s | 84% | 72% | -40% | 0.022 µM | -29% | -31% | -22% |  | 
2 | Cc1oc(-c2ccccc2)nc1CCOc1ccc(CN(CCOCc2ccccc2)CC(=O)O)cc1 | 1.18 µM |  | 1.8 µM | 4.56 µM |  |  | 56% |  | 0.726 µM |  |  |  |  | 
3 | Cc1oc(-c2ccccc2)nc1CCOc1ccc(CN(CC(=O)O)Cc2ccc3c(c2)OCO3)cc1 | 0.307 µM |  | 1.8 µM | 3.29 µM |  |  | 77% |  | 0.128 µM |  |  |  |  | 
4 | Cc1oc(-c2ccccc2)nc1CCOc1cccc(CN(CC(=O)O)Cc2cccc(Oc3ccccc3)c2)c1 | 0.359 µM |  | 0.083 µM | 0.11 µM |  |  | 95% |  | 0.062 µM |  |  |  |  | 
5 | Cc1oc(-c2ccccc2)nc1CCOc1cccc(CN(CC(=O)O)Cc2ccc(OCc3ccccc3)cc2)c1 | 0.412 µM |  | 0.387 µM | 0.183 µM |  |  | 56% |  | 0.324 µM |  |  |  |  | 
6 | Cc1oc(-c2ccccc2)nc1CCOc1cccc(CN(CCc2ccccc2)CC(=O)O)c1 | 0.108 µM |  | 0.075 µM | 0.134 µM |  |  | 82% |  | 0.044 µM |  |  |  |  | 
7 | Cc1oc(-c2ccccc2)nc1CCOc1ccc(CN(CC(=O)O)Cc2cccc3ccccc23)cc1 | 0.84 µM |  | 0.14 µM | 0.767 µM |  |  | 90% |  | 0.021 µM |  |  |  |  | 
8 | Cc1oc(-c2ccccc2)nc1CCOc1cccc(CN(CC(=O)O)Cc2ccc3ccccc3c2)c1 | 1.39 µM |  | 0.149 µM | 0.145 µM |  |  | 65% |  | 0.313 µM |  |  |  |  | 
9 | Cc1oc(-c2ccccc2)nc1CCOc1cccc(CN(CC(=O)O)Cc2cccc3ccccc23)c1 | 0.036 µM |  | 0.034 µM | 0.067 µM |  |  | 85% |  | 0.005 µM |  |  |  |  | 
10 | Cc1oc(-c2ccccc2)nc1CCOc1cccc(CN(CCCc2ccccc2)CC(=O)O)c1 | 0.901 µM |  | 0.051 µM | 0.773 µM |  |  | 62% |  | 0.047 µM |  |  |  |  | 
11 | COc1ccc(OC(=O)N(CC(=O)O)Cc2ccc(OCCc3nc(-c4ccccc4)oc3C)cc2)cc1 [MURAGLITAZAR] |  |  |  |  |  |  |  | -67% |  | -50% | -50% | -69% |  | 
12 | Cc1oc(-c2ccccc2)nc1CCOc1ccc(CN(CC(=O)O)Cc2ccccc2)cc1 | 3.6 µM |  |  | 1.77 µM |  |  | 24% |  | 4.02 µM |  |  |  |  | 
13 | Cc1oc(-c2ccccc2)nc1CCOc1ccc(C[C@H](Nc2ccccc2C(=O)c2ccccc2)C(=O)O)cc1 |  |  |  |  |  |  | 59% |  |  |  |  |  |  | 
14 | Cc1oc(-c2ccccc2)nc1CCOc1ccc(CN(CC(=O)O)Cc2ccccn2)cc1 | 0.23 µM |  |  | 2.9 µM |  |  | 12% |  | 0.692 µM |  |  |  |  | 
15 | Cc1oc(-c2ccccc2)nc1CCOc1cccc(CN(CC(=O)O)Cc2cc3ccccc3[nH]2)c1 | 0.759 µM |  | 0.246 µM | 0.54 µM |  |  | 62% |  | 0.197 µM |  |  |  |  | 
16 | Cc1oc(-c2ccccc2)nc1CCOc1ccc(CN(CC(=O)O)Cc2ccc(OCc3ccccc3)cc2)cc1 | 0.221 µM |  | 1.05 µM | 0.284 µM |  |  | 106% |  | 0.189 µM |  |  |  |  | 
17 | Cc1oc(-c2ccccc2)nc1CCOc1ccc(CN(CC(=O)O)Cc2ccc(Oc3ccccc3)cc2)cc1 | 0.052 µM |  | 0.97 µM | 0.227 µM |  | 46% | 59% |  | 0.035 µM |  |  |  | < 1.5 ×10⁻⁶ cm/s | 
18 | CCCCCCCN(CCc1ccc(O[C@@](C)(CC)C(=O)O)cc1)C(=O)Nc1ccc(F)cc1F | 0.249 µM |  | 0.348 µM | 0.67 µM |  |  | 79% |  | 0.071 µM |  |  |  |  | 
19 | Cc1oc(-c2ccccc2)nc1CCOc1cccc(CN(CC(=O)O)Cc2ccc(Oc3ccccc3)cc2)c1 | 0.067 µM |  | 0.11 µM | 0.23 µM |  |  | 67% |  | 0.03 µM |  |  |  |  | 
20 | CCCCCCCN(CC(=O)O)Cc1ccc(OCCc2nc(-c3ccccc3)oc2C)cc1 | 0.136 µM |  | 1.05 µM | 2.3 µM |  |  | 63% |  | 0.18 µM |  |  |  |  | 
21 | CCC(CC)CN(CC(=O)O)Cc1ccc(OCCc2nc(-c3ccccc3)oc2C)cc1 | 1.8 µM |  |  |  |  |  | 8% |  |  |  |  |  |  | inactive
22 | Cc1oc(-c2ccccc2)nc1CCOc1ccc(CN(CC(=O)O)Cc2ccc3ccccc3c2)cc1 | 1.21 µM |  | 0.68 µM | 1.21 µM |  |  | 39% |  | 0.618 µM |  |  |  |  | 
23 | Cc1oc(-c2ccccc2)nc1CCOc1ccc(CN(CC(=O)O)Cc2ccc(-c3ccccc3Cl)o2)cc1 | 0.267 µM |  | 1.8 µM | 0.28 µM |  |  | 55% |  | 0.871 µM |  |  |  |  | 
24 | Cc1oc(-c2ccccc2)nc1CCOc1ccc(CN(CC(=O)O)Cc2cccc(Oc3ccccc3)c2)cc1 | 0.391 µM |  | 0.088 µM | 0.48 µM |  |  | 107% |  | 0.004 µM |  |  |  |  | 
